Reference: ChEMBL document CHEMBL1147715, “Gatifloxacin derivatives: synthesis, antimycobacterial activities, and inhibition of Mycobacterium tuberculosis DNA gyrase” (Bioorg Med Chem Lett, 2006)
Converted amounts (≈) assume the structure as drawn.

Assays:
[1] = Inhibition of Mycobacterium tuberculosis DNA gyrase
[2] = tested on: Mycobacterium tuberculosis; experiment: Antimycobacterial activity against Mycobacterium tuberculosis H37Rv; type: functional
[3] = tested on: Vero; experiment: Cytotoxicity against Vero cell line at 62.5 ug/ml after 72 hrs; type: functional, cell-based; settings: Chlorocebus sabaeus
[4] = tested on: Mycobacterium tuberculosis; experiment: Activity against Mycobacterium tuberculosis ATCC 35801 in CD1 mouse at 50 mg/kg assessed as decrease in bacterial load in lung relative to control; type: functional
[5] = tested on: Mycobacterium tuberculosis; experiment: Activity against Mycobacterium tuberculosis ATCC 35801 in CD1 mouse at 50 mg/kg assessed as decrease in bacterial load in spleen relative to control; type: functional
[6] = tested on: Mycobacterium tuberculosis; experiment: Selectivity index (IC50/MIC); type: functional

| Compound | IC50 [1] [µg/mL] | MIC [2] [µg/mL] | Activity [3] | Log10 cfu [4] | Log10 cfu [5] | Selectivity index [6] |
| --- | --- | --- | --- | --- | --- | --- |
| COc1c(N2CCN(Cn3c(O)c(/N=N/C(N)=O)c4cc(C)ccc43)C(C)C2)c(F)cc2c(=O)c(C(=O)O)cn(C3CC3)c12 (centres undefined) | 4.5 (≈ 7.43 µM) | 0.39 (≈ 0.644 µM) | Not toxic | – | – | – |
| COc1c(N2CCN(Cn3c(O)c(/N=N/C(=N)S)c4cc(F)ccc43)C(C)C2)c(F)cc2c(=O)c(C(=O)O)cn(C3CC3)c12 (centres undefined) | 8 (≈ 12.8 µM) | 0.1 (≈ 0.16 µM) | Not toxic | – | – | – |
| COc1c(N2CCN(CN3C(=O)/C(=N\c4ccc(S(=O)(=O)Nc5ncccn5)cc4)c4ccccc43)C(C)C2)c(F)cc2c(=O)c(C(=O)O)cn(C3CC3)c12 (centres undefined) | 8 (≈ 10.4 µM) | 0.2 (≈ 0.261 µM) | Not toxic | – | – | – |
| COc1c(N2CCN(Cn3c(O)c(/N=N/C(=O)c4ccncc4)c4ccccc43)C(C)C2)c(F)cc2c(=O)c(C(=O)O)cn(C3CC3)c12 (centres undefined) | 4 (≈ 6.12 µM) | 0.78 (≈ 1.19 µM) | Not toxic | – | – | – |
| COc1c(N2CCN(Cn3c(O)c(/N=N/C(=O)c4ccncc4)c4cc(F)ccc43)C(C)C2)c(F)cc2c(=O)c(C(=O)O)cn(C3CC3)c12 (centres undefined) | – | 0.78 (≈ 1.16 µM) | Not toxic | – | – | – |
| COc1c(N2CCN(Cn3c(O)c(/N=N/C(=N)S)c4ccccc43)C(C)C2)c(F)cc2c(=O)c(C(=O)O)cn(C3CC3)c12 (centres undefined) | 5 (≈ 8.23 µM) | 0.2 (≈ 0.329 µM) | Not toxic | – | – | – |
| COc1c(N2CCN(Cn3c(O)c(/N=N/C(=N)S)c4cc(Cl)ccc43)C(C)C2)c(F)cc2c(=O)c(C(=O)O)cn(C3CC3)c12 (centres undefined) | 4 (≈ 6.23 µM) | 0.39 (≈ 0.607 µM) | Not toxic | – | – | – |
| COc1c(N2CCN(Cn3c(O)c(/N=N/C(N)=O)c4cc(F)ccc43)C(C)C2)c(F)cc2c(=O)c(C(=O)O)cn(C3CC3)c12 (centres undefined) | 4 (≈ 6.56 µM) | 0.2 (≈ 0.328 µM) | Not toxic | – | – | – |
| COc1c(N2CCN(CN3C(=O)/C(=N\c4ccc(S(=O)(=O)Nc5ncccn5)cc4)c4cc(C)ccc43)C(C)C2)c(F)cc2c(=O)c(C(=O)O)cn(C3CC3)c12 (centres undefined) | 3 (≈ 3.84 µM) | 0.1 (≈ 0.128 µM) | Not toxic | – | – | – |
| COc1c(N2CCN(CN3C(=O)/C(=N\c4ccc(S(=O)(=O)Nc5ncccn5)cc4)c4cc(Cl)ccc43)C(C)C2)c(F)cc2c(=O)c(C(=O)O)cn(C3CC3)c12 (centres undefined) | 6 (≈ 7.49 µM) | 0.1 (≈ 0.125 µM) | Not toxic | – | – | – |
| COc1c(N2CCN(Cn3c(O)c(/N=N/C(=O)c4ccncc4)c4cc(Cl)ccc43)C(C)C2)c(F)cc2c(=O)c(C(=O)O)cn(C3CC3)c12 (centres undefined) | 5 (≈ 7.27 µM) | 0.39 (≈ 0.567 µM) | Not toxic | – | – | – |
| COc1c(N2CCN(Cn3c(O)c(/N=N/C(=N)S)c4cc(C)ccc43)C(C)C2)c(F)cc2c(=O)c(C(=O)O)cn(C3CC3)c12 (centres undefined) | 10 (≈ 16.1 µM) | 0.78 (≈ 1.25 µM) | Not toxic | – | – | – |
| COc1c(N2CCN(CN3C(=O)/C(=N\c4ccc(S(=O)(=O)Nc5ncccn5)cc4)c4cc(F)ccc43)C(C)C2)c(F)cc2c(=O)c(C(=O)O)cn(C3CC3)c12 (centres undefined) | 6 (≈ 7.65 µM) | 0.2 (≈ 0.255 µM) | Not toxic | – | – | – |
| COc1c(N2CCN(Cn3c(O)c(/N=N/C(N)=O)c4cc(Cl)ccc43)C(C)C2)c(F)cc2c(=O)c(C(=O)O)cn(C3CC3)c12 (centres undefined) | 4 (≈ 6.39 µM) | 0.39 (≈ 0.623 µM) | Not toxic | – | – | – |
| COc1c(N2CCN(Cn3c(O)c(/N=N/C(=O)c4ccncc4)c4cc(C)ccc43)C(C)C2)c(F)cc2c(=O)c(C(=O)O)cn(C3CC3)c12 (centres undefined) | 5.5 (≈ 8.24 µM) | 0.78 (≈ 1.17 µM) | Not toxic | – | – | – |
| COc1c(N2CCNC(C)C2)c(F)cc2c(=O)c(C(=O)O)cn(C3CC3)c12 (centres undefined) [GATIFLOXACIN] | 4 (≈ 10.7 µM) | 0.2 (≈ 0.533 µM) | – | 5.82 | 6.14 | – |
| COc1c(N2CCN(Cn3c(O)c(/N=N/C(N)=O)c4ccccc43)C(C)C2)c(F)cc2c(=O)c(C(=O)O)cn(C3CC3)c12 (centres undefined) | 3 (≈ 5.07 µM) | 0.0125 (≈ 0.0211 µM) | Not toxic | 4.26 | 5.08 | > 1250 |
